Values of other authors in publication PMC7395068, “The evolution of strategies to minimise the risk of human drug-induced liver injury (DILI) in drug discovery and development” (Archives of Toxicology, 2020).

Settings: binary in vivo DILI call given beside the severity category; ref Chen 2016; cited from earlier work

Row | Molecule | DILI +VE (5-8), DILI -VE (-4)
1 | palivizumab | -VE
2 | polymyxin b sulfate | -VE
3 | secretin | -VE
4 | sucralfate | -VE
5 | tinzaparin | -VE

Same assay, conditions: human DILI concern category (LTKB DILIrank); ref Chen 2016; cited from earlier work

Row | Molecule | DILI severity category
6 | palivizumab | vNo-DILI-Concern
7 | polymyxin b sulfate | vNo-DILI-Concern
8 | secretin | vNo-DILI-Concern
9 | sucralfate | vNo-DILI-Concern
10 | tinzaparin | Ambiguous DILI-concern

Same assay, conditions: in vivo; cited from earlier work

Row | Molecule | DILI +VE (5-8), DILI -VE (-4) | DILI severity category
11 | Cl.N [ammonium chloride] | -VE | vNo-DILI-Concern
12 | infliximab | +VE | vMost-DILI-Concern
13 | interferon alfacon-1 | +VE | vMost-DILI-Concern
14 | interferon beta-1b | +VE | vMost-DILI-Concern
15 | lepirudin | -VE | Ambiguous DILI-concern
16 | mecasermin | -VE | Ambiguous DILI-concern
17 | muromonab-cd3 | -VE | Ambiguous DILI-concern
18 | natalizumab | +VE | vMost-DILI-Concern
19 | nesiritide | -VE | vNo-DILI-Concern
20 | ofatumumab | -VE | vNo-DILI-Concern
21 | omalizumab | -VE | vNo-DILI-Concern
22 | panitumumab | -VE | vNo-DILI-Concern
23 | peginterferon alfa-2a | -VE | Ambiguous DILI-concern
24 | pentosan polysulfate | -VE | Ambiguous DILI-concern
25 | polyethylene glycol 3350 | -VE | vNo-DILI-Concern
26 | pramlintide (KCNTATCATQRLANFLVHSSNNFGPILPPTNVGSNTY; chains of the INN, looked up) | -VE | vNo-DILI-Concern
27 | protamine sulfate | -VE | vNo-DILI-Concern
28 | rilonacept | -VE | vNo-DILI-Concern
29 | romiplostim | -VE | vNo-DILI-Concern
30 | sacrosidase | -VE | Ambiguous DILI-concern
31 | sargramostim | -VE | vNo-DILI-Concern
32 | simethicone | -VE | vNo-DILI-Concern
33 | somatropin recombinant | -VE | vNo-DILI-Concern
34 | teriparatide | -VE | vNo-DILI-Concern
35 | triptorelin pamoate | +VE | vLess-DILI-Concern
36 | urokinase | -VE | vNo-DILI-Concern
37 | ustekinumab | -VE | vNo-DILI-Concern
38 | verteporfin | -VE | Ambiguous DILI-concern
39 | vitamin e | -VE | –

Settings: […]; cited from earlier work

Row | Molecule | In vivo DILI
40 | O=S(=O)([O-])[O-].[Fe+2] [ferrous sulfate] | +VE
41 | CC1(C)O[C@@H]2C[C@H]3[C@@H]4C[C@H](F)C5=CC(=O)C=C[C@]5(C)[C@H]4[C@@H](O)C[C@]3(C)[C@]2(C(=O)CO)O1 [flunisolide] | -VE
42 | Cc1coc2c1CCC(C)C2 (stereo not shown) [menthofuran] | +VE
43 | C#C[C@]1(O)CC[C@H]2[C@@H]3CCc4cc(OC)ccc4[C@H]3CC[C@@]21C [mestranol] | -VE
44 | C[C@H](N)[C@H](O)c1cccc(O)c1 [metaraminol] | -VE
45 | CBr [methyl bromide] | -VE
46 | CCCCC1C(=O)N(c2ccccc2)N(c2ccc(O)cc2)C1=O (stereo not shown) [oxyphenbutazone] | +VE
47 | COc1ccc(CN(CCN(C)C)c2ccccn2)cc1 [pyrilamine] | -VE
48 | COc1ncnc(NS(=O)(=O)c2ccc(N)cc2)c1OC [sulfadoxine] | -VE
49 | C[C@]12C=CC(=O)C=C1CC[C@H]1[C@@H]3C[C@@H](O)[C@](O)(C(=O)CO)[C@@]3(C)C[C@H](O)[C@@]12F [triamcinolone] | -VE
50 | hemin | -VE

Same assay, conditions: assignment in O'Brien 2006; ref O'Brien 2006; cited from earlier work

Row | Molecule | In vivo DILI
51 | CC(=O)Nc1ccc2c(c1)Cc1ccccc1-2 [acetamido uorene] | +VE
52 | C=CCO [ally alcohol] | +VE
53 | c1ccc2c(c1)cc1ccc3cccc4ccc2c1c34 [benzopyrene] | +VE
54 | C[N+](C)(C)CC(=O)O.[Cl-] [betaine hcl (acidic)] | +VE
55 | Brc1ccccc1 [bromobenzene] | +VE
56 | CCCCSCCC(N)C(=O)O (stereo not shown) [buthionine] | +VE
57 | ClC(Cl)(Cl)Cl [carbon tetrachloride] | +VE
58 | C=C1[C@@H](C)[C@H]2[C@H](Cc3ccccc3)NC(=O)[C@]23OC(=O)/C=C/[C@H](O)CCC[C@@H](C)C/C=C/[C@H]3[C@@H]1O [cytochalasin b] | +VE
59 | C=C1[C@@H](C)[C@H]2[C@H](Cc3ccccc3)NC(=O)[C@]23[C@H](OC(C)=O)/C=C/[C@@](C)(O)C(=O)[C@@H](C)C/C=C/[C@H]3[C@@H]1O [cytochalasin d] | +VE
60 | CCSCC[C@H](N)C(=O)O [ethionine] | +VE
61 | N[C@H]1C(O)O[C@H](CO)[C@@H](O)[C@@H]1O (stereo partly shown) [glucosamine] | +VE
62 | C[C@H](CCC(=O)O)C[C@H](C)C[C@H](C)C(=O)/C=C(\O)[C@H](C)C[C@H](C)C/C=C/[C@@H](C)[C@@H](O)[C@@H](C)[C@@H](O)C[C@@H]1CC[C@@](C)([C@H]2CC[C@@](C)([C@@H](C)O)O2)O1 [ionomycin] | +VE
63 | O=C(O)CC[N+](=O)[O-] [nitroproprionic acid] | +VE
64 | CN(C)N=O [nitrosodimethylamine] | +VE
65 | CC(C)[C@@]1(O)[C@@H](OC(=O)c2ccc[nH]2)[C@@]2(O)[C@@]3(C)C[C@]4(O)O[C@@]5([C@H](O)[C@@H](C)CC[C@]35O)[C@@]2(O)[C@@]14C [ryanodine] | +VE
66 | [Na+].[OH-] [sodium hydroxide] | +VE
67 | C[C@H](CCC(=O)NCCS(=O)(=O)O)[C@H]1CC[C@H]2[C@@H]3[C@H](O)C[C@@H]4C[C@H](O)CC[C@]4(C)[C@H]3C[C@H](O)[C@]12C [taurocholic] | +VE
68 | C[C@H](CCC(=O)NCCS(=O)(=O)O)[C@H]1CC[C@H]2[C@@H]3CC[C@@H]4C[C@H](O)CC[C@]4(C)[C@H]3C[C@H](O)[C@]12C [taurodeoycholic] | +VE
69 | C[C@H](CCC(=O)NCCS(=O)(=O)O)[C@H]1CC[C@H]2[C@@H]3CC[C@@H]4C[C@H](O)CC[C@]4(C)[C@H]3CC[C@]12C [taurolithocholic] | +VE
70 | ClC=C(Cl)Cl [trichloroethylene] | +VE
71 | dichloroethylene | +VE

Same assay, conditions: in vivo; cited from earlier work

Row | Molecule | In vivo DILI
72 | CC1(C)[C@@H](O)CC[C@]2(C)[C@H]3C(=O)C=C4[C@@H]5C[C@@](C)(C(=O)O)CC[C@]5(C)CC[C@@]4(C)[C@]3(C)CC[C@@H]12 [18 beta-glycyrrhetic acid] | -VE
73 | Cl.N [ammonium chloride] | -VE
74 | CN(C)[C@@H]1C(O)=C(C(N)=O)C(=O)[C@@]2(O)C(O)=C3C(=O)c4c(O)ccc(Cl)c4[C@@](C)(O)[C@H]3C[C@@H]12 [chlortetracycline] | +VE
75 | CC1(COc2ccc(CC3SC(=O)NC3=O)cc2)CCCCC1 (stereo not shown) [ciglitizone] | -VE
76 | O=C(O)CC(O)(CC(=O)O)C(=O)O [citrate] | -VE
77 | CC/C(=C(/CC)c1ccc(O)cc1)c1ccc(O)cc1 [diethylsilbesterol] | +VE
78 | c1cc[n+]2c(c1)-c1cccc[n+]1CC2 [diquat] | +VE
79 | C[C@]12CC[C@@H]3c4ccc(O)cc4CC[C@H]3[C@@H]1C[C@@H](O)[C@@H]2O [estriol] | -VE
80 | C=CCc1ccc(O)c(OC)c1 [eugenol] | +VE
81 | C=O [formaldehyde] | +VE
82 | Cl [hydrochloric acid] | +VE
83 | COc1ccc2c3c1O[C@H]1C(=O)CC[C@H]4[C@@H](C2)N(C)CC[C@]314 [hydrocodone] | -VE
84 | CCNC(=O)[C@@H]1CCCN1C(=O)[C@H](CCCNC(=N)N)NC(=O)[C@H](CC(C)C)NC(=O)[C@@H](CC(C)C)NC(=O)[C@H](Cc1ccc(O)cc1)NC(=O)[C@H](CO)NC(=O)[C@H](Cc1c[nH]c2ccccc12)NC(=O)[C@H](Cc1c[nH]cn1)NC(=O)[C@@H]1CCC(=O)N1 [leuprolide] | -VE
85 | Cc1cccc(O)c1 [m-cresol] | +VE
86 | O=C(O)CC(=O)O [malonic acid] | +VE
87 | CC[C@@]1([C@@H]2O[C@@H]([C@H]3O[C@@](O)(CO)[C@H](C)C[C@@H]3C)C[C@@H]2C)CC[C@H]([C@]2(C)CC[C@]3(C[C@H](O)[C@@H](C)[C@@H]([C@@H](C)[C@@H](OC)[C@H](C)C(=O)O)O3)O2)O1 [monensin] | +VE
88 | CC(N)C(O)c1ccccc1 (stereo not shown) [phenylpropanolamine] | -VE
89 | C[N+]1(C)[C@@H]2C[C@@H](OC(=O)C(O)(c3cccs3)c3cccs3)C[C@H]1[C@@H]1O[C@@H]12 [tiotropium] | -VE

Same assay, conditions: ref Schadt 2015; cited from earlier work

Row | Molecule | In vivo DILI
90 | NC(=O)N1c2ccccc2CC(=O)c2ccccc21 [oxcarbazeptin] | +VE
